These results are taken from patent EP1598069A2, “Pharmaceutical combination of ethinylestradiol and drospirenone for use as a contraceptive” (Schering Aktiengesellschaft, priority 1999, dated 2001).

Series [1] is described as follows: Chemical stability under acid and alkaline conditions (statement). It is filed as physicochemical.
The conditions of series [2]: human, in vivo, po. On the procedure: 42 healthy women between 18 and 35 years of age were included in an open-label crossover study after their informed consent had been obtained. The aim of the study was to investigate the relative bioavailability of drospirenone and ethinylestradiol from a tablet formulation containing 3 mg drospirenone and 0.03 mg ethinylestradiol with reference to an oral suspension containing 6 mg of drospirenone and 0.06 mg ethinylestradiol per vial.
The bioavailability was determined using serum concentrations of each active agent as parameters.

Series [3] in a line: Absolute bioavailability of drospirenone after oral administration. It is filed as in vivo, women.
Series [4] is described as follows: Solubility in water and aqueous buffers (statement). The conditions noted are these: drospirenone: in water and aqueous buffers at various pH values. It is filed as physicochemical.

As to `C[C@]12CCC(=O)C=C1[C@@H]1C[C@@H]1[C@H]1[C@@H]3[C@@H]4C[C@@H]4[C@@]4(CCC(=O)O4)[C@@]3(C)CC[C@@H]12` [drospirenone, 6β,7β;15β,16β-dimethylene-3-oxo-17α-pregn-4-ene-21,17-carbolactone], in series [1] (acid conditions), the “stability under acid conditions” value is “rearranged to an inactive isomer”. Further, in series [1] (alkaline conditions), the “stability under alkaline conditions” value was “hydrolysed”. The relative bioavailability in series [2] was determined as 107%. In addition, in series [3] (human, in vivo, oral administration of a microcrystalline suspension containing 3.13 mg drospirenone to 6 postmenopausal women), the bioavailability (as a rule, dose-corrected exposure relative to a reference, in per cent) is 85%. For the same compound, the absolute bioavailability in series [3] (oral administration of 2 mg drospirenone to 8 young healthy women) is reported as 76%±13%. The solubility entry in series [4] is “sparingly soluble”.

For `C#C[C@]1(O)CC[C@H]2[C@@H]3CCc4cc(O)ccc4[C@H]3CC[C@@]21C` [ethinylestradiol, 17α-ethinylestradiol], in series [2], the relative bioavailability came out at 117%. Moreover, in series [4], the solubility entry is given as “sparingly soluble”.
